Entries after “also recorded” stand apart in the source; their conditions may differ. Read-outs that look alike come from different tables or passages of the source.
Assays:
[1] = tested on: Isogenic HCT-116 colon cancer cell lines; assay: cells; format: cell-based; settings: Homo sapiens, cell growth;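 also: cells grown in 96-well plates in McCoy's 5A medium with 10% FBS, exposed to compound for 4 days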
Description: Cells were seeded in 96-well flat bottom cell culture plates at a density of 2−3×10^3 cells/well with compounds and incubated for 4 days.

[2] = In vitro microsomal stability, rat; format: in vitro ADME
[3] = tested on: cancer cell lines with wild-type p53 / mutated or deleted p53 (ATCC); assay: Cell growth assay (WST-8), other cancer cell lines; format: cell-based; settings: Homo sapiens
[4] = In vitro microsomal stability, human; format: in vitro ADME
[5] = Pharmacokinetic studies in rats; format: in vivo, rat
Description: Pharmacokinetic studies on MDM2 inhibitors were carried out in rat. For comparison, the MDM2 inhibitor, AT-219, was also studied.

SJSA-1 xenograft tumors = assay: In vivo efficacy, SJSA-1 xenograft model (tumor volume); set-up: species or system C.B-17 SCID mice; settings: for % Tumor Growth Inhib. T/C Control 750 mm^3 D29: Exp. No. 3, SJSA-1 xenograft
Description: SJSA-1 tumor cells were harvested with Trypsin (0.05%)-EDTA (0.53 mM) (GIBCO™, Invitrogen Corp.), growth medium added and cells placed on ice. A cell sample was mixed 1:1 with Trypan Blue (GIBCO™, Invitrogen Corp.) and counted on a hemocytometer to determine the number of live/dead cells. Cells were washed once with 1×PBS (GIBCO™, Invitrogen Corp.) and resuspended in PBS. For Matrigel injections, after washing in PBS, cells are resuspended in an ice cold mixture of 1:1 PBS and Matrigel (BD Biosciences, Invitrogen Corp.) for a final Matrigel protein concentration of 5 mg/ml. SJSA-1 tumors were inoculated into C.B-17 SCID mice at 5×10^6 cells in 0.1 ml with Matrigel. Cells were injected s.c. into the flank region of each mouse using a 27 gauge needle.
The size of tumors growing in the mice was measured in two dimensions using calipers. Tumor volume (mm^3)=(A×B2)/2 where A and B are the tumor length and width (in mm), respectively. During treatment, tumor volume and body weight was measured three times a week. […] Mice were kept for an additional 60 days for further observation of tumor growth and toxicity.

[6] = Animal weight in SJSA-1 xenograft studies; format: in vivo, C.B-17 SCID mice; settings: SJSA-1 xenograft mice
Description: The size of tumors growing in the mice was measured in two dimensions using calipers. Tumor volume (mm^3)=(A×B2)/2 where A and B are the tumor length and width (in mm), respectively. During treatment, tumor volume and body weight was measured three times a week. After the treatment was stopped, tumor volume (FIGS. 7, 9, 11, and 36) and body weight (FIGS. 8, 10, 12, and 37) was measured at least once a week. Mice were kept for an additional 60 days for further observation of tumor growth and toxicity.
Before treatment began, tumors were allowed to grow to 60-140 mm^3 in volume, at which point the blood vessel supplies to the tumor should have been established. Mice with tumors within acceptable size range were randomized into treatment groups of 8 mice for experimental compounds and 10 mice for the Control group. Experimental compounds were given orally, once per day for 2-3 weeks. The Control group received vehicle alone (10% PEG 400: 3% Cremophor: 87% PBS).

CC(C)(C)C[C@H]1N[C@@H](C(=O)NC2CCC(O)CC2)[C@H](c2cccc(Cl)c2F)[C@@]12C(=O)Nc1cc(Cl)ccc12 (stereo partly shown) [MI-773]
IC50 ([1]; HCT-116, read-out: HCT-116 (p53-/-) IC50, Table 19A, HCT-116 p53-/-): > 10 µM
IC50 ([1]; HCT-116, read-out: HCT-116 (p53 wild-type) IC50, Table 19A, HCT-116 p53 wild-type): < 1 µM
% of compound remaining when incubated in rat liver microsomes with NADPH ([2]; 0 min): 100.00%
% of compound remaining when incubated in rat liver microsomes with NADPH ([2]; 5 min): 81.32%
% of compound remaining when incubated in rat liver microsomes with NADPH ([2]; 10 min): 60.00%
% of compound remaining when incubated in rat liver microsomes with NADPH ([2]; 15 min): 56.58%
% of compound remaining when incubated in rat liver microsomes with NADPH ([2]; 30 min): 46.11%
% of compound remaining when incubated in rat liver microsomes with NADPH ([2]; 45 min): 41.18%
% of compound remaining when incubated in rat liver microsomes with NADPH ([2]; 60 min): 33.26%
half-life ([2]; rat, liver microsomes, rat liver microsomes with NADPH): 17.3 min
IC50 ([3]; LNCaP, read-out: LNCAP (p53 wild-type) IC50): < 1000 nM
IC50 ([3]; PC-3, read-out: PC-3 (deleted p53) IC50): > 10000 nM
IC50 ([3]; SJSA-1, read-out: SJSA-1 (p53 wild-type) IC50): < 1000 nM
microsomal stability (in words) ([4]; human liver microsomes): more stable than MI-219
% of compound remaining when incubated in human liver microsomes with NADPH ([4]; human liver microsomes, 0 min): 100.00%
% of compound remaining when incubated in human liver microsomes with NADPH ([4]; human liver microsomes, 5 min): 83.70%
% of compound remaining when incubated in human liver microsomes with NADPH ([4]; human liver microsomes, 10 min): 82.97%
% of compound remaining when incubated in human liver microsomes with NADPH ([4]; human liver microsomes, 15 min): 69.38%
% of compound remaining when incubated in human liver microsomes with NADPH ([4]; human liver microsomes, 30 min): 52.36%
% of compound remaining when incubated in human liver microsomes with NADPH ([4]; human liver microsomes, 45 min): 42.57%
% of compound remaining when incubated in human liver microsomes with NADPH ([4]; human liver microsomes, 60 min): 28.77%
half-life ([4]; human, liver microsomes, human liver microsomes with NADPH): 31.5 min
oral bioavailability / oral pharmacokinetics in rats (in words) ([5]; oral dosing, rats): good oral bioavailability; also recorded: high oral bioavailability
CLz ([5]; rat, IV, 5 mg/kg, plasma, parent compound): 1.0 L/h/kg
Vd ([5]; rat, plasma, iv, 5 mg/kg, rat, IV, 5 mg/kg, plasma, parent compound, read-out: Vz): 3 L/kg
pharmacokinetic profile (in words) ([5]; rats, intravenous and oral routes of dosing): improved PK parameters over MI-219
% Tumor Growth Inhib. T/C Control 750 mm^3 D24 (SJSA-1 xenograft tumors; Exp. No. 2, SJSA-1 xenograft, PO 100 mg/kg, D24): 3.2%
% Tumor Growth Inhib. T/C Control 750 mm^3 D29 (SJSA-1 xenograft tumors; PO 30 mg/kg): 24.3%
% Tumor Growth Inhib. T/C Control 750 mm^3 D29 (SJSA-1 xenograft tumors; PO 100 mg/kg): 1.2%
in vivo efficacy (in words) (SJSA-1 xenograft tumors; SJSA-1 xenograft, oral once per day 2-3 weeks): good in vivo efficacy
weight loss in the animals (in words) [6]: without significant weight loss

From patent publication US9079913B2, “Spiro-oxindole MDM2 antagonists” (The Regents of the University of Michigan, priority 2009, dated 2015)
